pIC50: −log10 of the molar value. Read-outs that look alike come from different tables or passages of the source.
Key:
[1] = Plasma concentrations after oral dosing; assay type: in vivo, Wistar rats; conditions: for Cmax: read-out: plasma concentration (Cmax)
Description: The activity of Example 2 as a general inhibitor of inflammation was tested using the Mycobacterium footpad edema assay (MFE) in Wistar rats. Compound was administered daily by gavage at 2 mg/kg, 10 mg/kg, or 50 mg/kg. […] The bioavailability of this compound is therefore well in excess of the effective range of gelatinase A inhibition determined in the in vitro assays.

EAE Rats [2] = assay: EAE Lewis rat acute model, Protocol 1 (daily oral dosing Day 0-14); assay type: in vivo
Description: (§1) Female Lewis rats were purchased from Harlan Sprague-Dawley (Indianapolis, IN) and were used at 8 to 10 weeks of age. Active EAE was induced by injection of 0.05 mL emulsion of myelin basic protein (MBP) with complete Freund's adjuvant (CFA), containing 25 μg guinea pig MBP and 100 μg Mycobacterium butyricum (Difco Laboratories, Detroit, MI) into one hind footpad. Immunized rats were observed daily for clinical signs of EAE and scored as follows: 0, no symptoms; 1, loss of tail tonicity; 2, paresis; 3, hind limb paralysis, often accompanied by incontinence; and 4, death. Formalin-fixed brain slice sections were stained with hematoxylin-eosin and evaluated microscopically for perivascular and parenchymal infiltration. Compound was administered by gavage as a solution in sterile saline in a volume of 500 μL. […] Several different protocols were used to define the efficacy and timing requirements for potency.
Protocol 1: Compound was administered daily at 50 mg/kg beginning on Day 0 and continuing through Day 14, with MBP in CFA administered on Day 0 also. […] N=5 for all groups.

EAE Rats [3] = assay: EAE Lewis rat acute model, Protocol 2 (alternate-day oral dosing Day 0-14); assay type: in vivo; conditions: for Effect on EAE Rats (≥Paresis/Total): CFA + MBP control 5/7
Description: as §1
Controls run in parallel included CFA only and MBP in CFA. N=4 for treatment groups. N=8 for controls.

[4] = test system: Mycobacterium footpad edema; assay: Mycobacterium footpad edema assay (MFE); assay type: in vivo, Wistar rats; conditions: all values of Table IV (2, 10, 50 mg/kg)
Description: The activity of Example 2 as a general inhibitor of inflammation was tested using the Mycobacterium footpad edema assay (MFE) in Wistar rats. Compound was administered daily by gavage at 2 mg/kg, 10 mg/kg, or 50 mg/kg.
Male outbred Wistar rats (110-125 g, Charles River Labs, Portage, Mich.) were used in this study. Rats were housed for a minimum of 1 week before use. Food and water were supplied ad libitum. Foot pad edema was induced following the method described by Martel R.R. and Klicius J., "Comparisons in rats of the antiinflammatory and gastric irritant effects of etodolac with several clinically effective antiinflammatory drugs", Agents and Actions, 1982;12:295. […] Swelling was assessed on the third day by subtracting the initial volume (determined immediately following the Mycobacterium injection) from the final volume of the treated paw. Paw volume was determined by mercury plethysmography. The percent inhibition of edema achieved in each compound-treated group was determined by comparison with swelling in the vehicle-treated group and the ID50 values were determined by regression analysis. Statistical significance between experimental groups was evaluated using a Student's t-test.

[5] = molecular target: T1, collagenase (full-length native enzyme) (Homo sapiens, UniProt P03956); assay: Inhibition of collagenase (full-length native enzyme), thiopeptolide substrate; assay type: biochemical
T1 construct: collagenase (full-length native enzyme)
T1 sequence (P03956 100-469): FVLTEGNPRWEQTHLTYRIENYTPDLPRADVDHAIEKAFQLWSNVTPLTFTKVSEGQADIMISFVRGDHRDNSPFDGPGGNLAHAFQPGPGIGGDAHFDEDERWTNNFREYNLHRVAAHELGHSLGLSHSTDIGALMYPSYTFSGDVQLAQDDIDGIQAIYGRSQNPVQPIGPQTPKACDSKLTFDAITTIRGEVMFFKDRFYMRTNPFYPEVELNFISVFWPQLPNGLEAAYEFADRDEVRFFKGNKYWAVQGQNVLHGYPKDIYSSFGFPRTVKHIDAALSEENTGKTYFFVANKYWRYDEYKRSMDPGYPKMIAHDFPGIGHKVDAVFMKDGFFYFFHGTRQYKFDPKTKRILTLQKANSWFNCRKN
Description: Experiments were carried out with both the full-length enzymes and the catalytic domains. […] IC50 values were determined using a thiopeptolide substrate, Ac-Pro-Leu-Gly-thioester-Leu-Leu-Gly-OEt (Ye Q.-Z., Johnson L.L., Hupe D.J., and Baragi V., "Purification and Characterization of the Human Stromelysin Catalytic Domain Expressed in Escherichia coli", Biochemistry,1992;31:11231-11235). […] IC50 values for gelatinase B, and collagenase, were >100 μM.

[6] = molecular target: T2, GCD (recombinant gelatinase A catalytic domain) (Homo sapiens, UniProt P08253); assay: Inhibition of GCD (recombinant gelatinase A catalytic domain), thiopeptolide substrate; assay type: biochemical; conditions: thiopeptolide substrate Ac-Pro-Leu-Gly-thioester-Leu-Leu-Gly-OEt
T2 construct: propeptide, C-terminal domain and fibronectin-like insert removed; E. coli host likely
T2 sequence (P08253 110-660): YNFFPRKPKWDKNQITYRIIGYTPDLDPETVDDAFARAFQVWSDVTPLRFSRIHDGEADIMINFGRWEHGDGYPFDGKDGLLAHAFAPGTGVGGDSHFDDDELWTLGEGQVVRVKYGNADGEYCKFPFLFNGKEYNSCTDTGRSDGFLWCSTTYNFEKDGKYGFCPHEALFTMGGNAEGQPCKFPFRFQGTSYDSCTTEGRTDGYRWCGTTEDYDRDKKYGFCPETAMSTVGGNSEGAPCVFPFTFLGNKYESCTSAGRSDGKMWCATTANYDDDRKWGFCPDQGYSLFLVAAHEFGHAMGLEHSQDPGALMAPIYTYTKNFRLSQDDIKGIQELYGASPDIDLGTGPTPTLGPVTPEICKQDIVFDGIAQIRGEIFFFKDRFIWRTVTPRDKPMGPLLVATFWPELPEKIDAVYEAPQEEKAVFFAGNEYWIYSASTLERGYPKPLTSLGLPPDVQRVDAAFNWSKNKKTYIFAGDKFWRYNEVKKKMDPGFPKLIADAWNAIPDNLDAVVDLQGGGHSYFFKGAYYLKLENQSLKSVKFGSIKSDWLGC
Text: Matrix metalloproteinases share high sequence homology and the catalytic domains of each of the MMPs can be identified by sequence alignment. The gene for the catalytic domain of stromelysin-1, SCD, was constructed by removing the propeptide and C-terminal domain (Ye Q.-Z., Johnson L.L, Hupe D.J., and Baragi V., "Purification and Characterization of the Human Stromelysin Catalytic Domain Expressed in Escherichia coli", Biochemistry,1992;31:11231-11235). The gelatinase A catalytic domain, GCD, was similarly constructed with the additional removal of the fibronectin-like insert which interrupts the catalytic domain (Ye Q.-Z., Johnson L.L, Yu A.E., and Hupe D., "Reconstructed 19 kDa Catalytic Domain of Gelatinase A is an Active Proteinase", Biochemistry, 1995;34:4702-4708). Both truncated proteins cleave synthetic peptide substrates and the natural substrates proteoglycan and gelatin in a manner similar to the full-length enzymes and can be used to identify matrix metalloproteinase inhibitors.
Experiments were carried out with both the full-length enzymes and the catalytic domains. […] IC50 values were determined using a thiopeptolide substrate, Ac-Pro-Leu-Gly-thioester-Leu-Leu-Gly-OEt (Ye Q.-Z., Johnson L.L., Hupe D.J., and Baragi V., "Purification and Characterization of the Human Stromelysin Catalytic Domain Expressed in Escherichia coli", Biochemistry,1992;31:11231-11235). […]

[7] = test system: leukocyte migration across the blood-brain barrier; assay: Histology of brain slices from Protocol 1 EAE animals; assay type: in vivo, Lewis rat; conditions: 50 mg/kg daily dosing schedule
Description: The activity of Example 2 in suppressing the inflammatory disease associated with EAE was tested using the Lewis rat acute model. Female Lewis rats were purchased from Harlan Sprague-Dawley (Indianapolis, IN) and were used at 8 to 10 weeks of age. Active EAE was induced by injection of 0.05 mL emulsion of myelin basic protein (MBP) with complete Freund's adjuvant (CFA), containing 25 μg guinea pig MBP and 100 μg Mycobacterium butyricum (Difco Laboratories, Detroit, MI) into one hind footpad. Immunized rats were observed daily for clinical signs of EAE and scored as follows: 0, no symptoms; 1, loss of tail tonicity; 2, paresis; 3, hind limb paralysis, often accompanied by incontinence; and 4, death. Formalin-fixed brain slice sections were stained with hematoxylin-eosin and evaluated microscopically for perivascular and parenchymal infiltration. Compound was administered by gavage as a solution in sterile saline in a volume of 500 μL. The dose of 50 mg/kg typically required 7.5 mg of compound per rat. Several different protocols were used to define the efficacy and timing requirements for potency.

[8] = test system: experimental allergic encephalomyelitis (EAE); conditions: Gijbels et al.; dose dependent; cited from earlier work

Row | Compound | Cmax and AUC(0-4) dose dependence ([1]; 2, 10, 50 mg/kg) | Cmax ([1]; rat, plasma, po, 2-mg/kg dose) [µM] | Cmax ([1]; rat, plasma, po, 10-mg/kg dose) [µM] | Cmax ([1]; rat, plasma, po, 50-mg/kg dose) [µM] | Tmax ([1]; rat, plasma, po, post-treatment, read-out: time of peak plasma concentration) [h] | plasma concentration decline ([1]; through the subsequent 4 hours after peak) | average scores for the treated group (EAE Rats [2]; 50 mg/kg daily, Day 0 through Day 14) | percentage of animals responding (total inhibition or reduction of symptoms) (EAE Rats [2]; 50 mg/kg daily, Day 0 through Day 14, N=5) [%] | Effect on EAE Rats (≥Paresis/Total) (EAE Rats [2]; CFA + Example 2 (no MBP), 50 mg/kg daily oral from Day 0) | Effect on EAE Rats (≥Paresis/Total) (EAE Rats [2]; CFA + MBP + Example 2, 50 mg/kg daily oral from Day 0, CFA + MBP control 5/5) | Effect on EAE Rats (≥Paresis/Total) (EAE Rats [3]; CFA + MBP + Example 2, 10 mg/kg alternate days) | Effect on EAE Rats (≥Paresis/Total) (EAE Rats [3]; CFA + MBP + Example 2, 50 mg/kg alternate days) | significance (p) of decrease in disease severity (EAE Rats [3]; Day 15, 10 or 50 mg/kg alternate days) | statistical significance of inhibition of the inflammatory response [4] | pIC50 [5] | pIC50 [6] | CNS inflammation [7] | cuff formation [7] | leukocyte migration across the blood-brain barrier [7] | effect on development or clinical expression of EAE [8]
1 | O=C(O)CCC(=NO)c1ccc2oc3ccccc3c2c1 [Example 2, 4-Dibenzofuran-2-yl-4-hydroximino-butyric acid] | increase proportionately with dose | 4.62 | 38.8 | 163 | 1 | declined mono-exponentially | substantially reduced | 100 | 0/5 | 1/5 | 0/4 | 0/4 | ≤ 0.01 | statistically significant | < 4.00 | 7.40 | little CNS inflammation | no cuff formation | completely prevented | –
2 | CNC(=O)[C@H](Cc1c[nH]c2ccccc12)NC(=O)[C@@H](CC(=O)NO)CC(C)C [GM6001] | – | – | – | – | – | – | – | – | – | – | – | – | – | – | – | – | – | – | – | suppressed the development or reversed the clinical expression of experimental allergic encephalomyelitis (EAE) in a dose dependent manner
